Data reported in patent US4913909A, “Complex of tea-leaf extract and active aluminum hydroxide” (Mitsui Norin Co., Ltd., priority 1986, dated 1990).

Legend:
[1] = system: indomethacin-induced ulcers (glandular stomach) of rats; assay: therapeutic effect against indomethacin ulcers of rats (method of Somogi et al.); type: in vivo, male rats of Wistar strain; details: indomethacin 25 mg/kg, 100 mg/kg p.o., 7 hours
Experimental: The complexes prepared in Examples 1 and 2, referred to as ATM and AEGCg, respectively, hereinbelow, were tested for the therapeutic activity against gastric ulcers of rats such as pylorus-ligated or indomethacin-induced ulcers.
Separately, according to the method of Somogi, et al. disclosed in J. Pharm. Pharmac., volume 21, page 122 (1969), a group of light male rats of Wistar strain each having a body weight of about 200 g were used to test the therapeutic effect of the complexes against indomethacin ulcers. Each of the rats belonging to the test group was, after 24 hours of fasting, orally administered with ATM or AEGCg suspended in a 5% solution of gum arabic followed by oral administration of indomethacin in a dose of 25 mg/kg body weight after 30 minutes from the administration of the ATM or AEGCg. After 7 hours abstinence from food and water, the rat was killed and the stomach was excised and incised along the greater curvature to measure the length of the ulcers appearing on the glandular stomach. The overall length of the ulcers is given in Table 2 below as the ulcer index. The control group was treated in the same manner as above excepting ATM or AEGCg in the gum arabic solution.

[2] = acute oral toxicity; design: species or system male mice of ddY strain; details: mouse, in vivo, male ddY mice, fasted overnight, read-out: 50% lethal dose (LD50)
Text: Lastly, ATM and AEGCg were subjected to the test of acute toxicity by male mice of ddY strain each having a body weight of 20 to 25 g. After fasting overnight, the mice were orally administered with ATM or AEGCg with varied doses to determine the 50% lethal dose (LD50).

[3] = system: gastric juice / peptic activity in rats; assay: antipeptic activity or effect on secretion of gastric juice in pylorus-ligated rats (method of Shay et al.); type: in vivo, male rats of Wistar strain; details: 200 mg/kg p.o., 6 hours
Experimental: Further, the complexes were subjected to the test for the antipeptic activity or the effect on the secretion of gastric juice in rats according to the method of Shay, et al. Thus, a group of eight male rats of Wistar strain each having a body weight of about 200 g were used as the test animals. After 24 hours of fasting, the stomach of each rat was ligated at the pyloric part under etherization. Immediately after the ligation, the rat was orally administered with ATM or AEGCg suspended in a 5% solution of gum arabic. After 6 hours of abstinence from food and water, the rat was again etherized to take out the stomach as ligated at the cardiac end. The gastric juice in the stomach was put to centrifugal separation to give a supernatant of which the volume, overall acidity and overall peptic activity were measured to give the results shown in Table 3.

[4] = system: pylorus-ligated ulcers (forestomach) of rats; assay: therapeutic activity against pylorus-ligated gastric ulcers of rats (method of Shay et al.); type: in vivo, male rats of Wistar strain; details: 100 mg/kg p.o., 18 hours
Experimental: After fasting 48 hours each rat was put to etherization and the stomach was ligated at the pyloric part. Immediately after the ligation, the rat was orally administered with a suspension of the ATM or AEGCg in a 5% solution of gum arabic. The control group was fed only the solution of gum arabic without either ATM or AEGCg. After 18 hours of abstinence from food and water, the rat was killed and the stomach was excised and incised along the greater curvature to examine the condition of ulcer appearing on the forestomach.

CN/C(=N/CCSCc1nc[nH]c1C)NC#N [Cimetidine]
Ulcer index (mm) ([1]; overall length of ulcers): 13.3 ± 2.8 mm | Suppression (%) ([1]; ulcer index vs control): 62.4%

O=C(O[C@@H]1Cc2c(O)cc(O)cc2O[C@@H]1c1cc(O)c(O)c(O)c1)c1cc(O)c(O)c(O)c1 [EGCg, (-)-epigallocatechin gallate]
LD50 [2]: 2500 mg/kg

Sucralfate
Overall acidity (mEq/liter) [3]: 85.4 ± 3.8 mEq/liter | Peptic activity (mg tyrosine) [3]: 585.3 ± 68.0 mg tyrosine | Volume of gastric juice (ml/rat) [3]: 7.98 ± 0.39 ml/rat | Suppression (%) ([3]; peptic activity vs control): 35.0% | Ulcer index [4]: 2.86 ± 0.40 | Suppression (%) ([4]; ulcer index vs control): 41.5%
